Test results published in ChEMBL document CHEMBL2439949, “Synthesis and structure-activity relationships of phenyl-substituted coumarins with anti-tubercular activity that target FadD32” (Bioorg Med Chem Lett, 2013).
Calls of active or inactive are those of the source. The calls are words filed in the database; no cut-off is given here.

Columns and labels:
[1] = test system: Mycobacterium tuberculosis; experiment: Antimycobacterial activity against Mycobacterium tuberculosis expressing FadD32 E120G mutant at 125 uM after 7 days; format: functional, organism-based
[2] = test system: Mycobacterium tuberculosis; experiment: Antimycobacterial activity against Mycobacterium tuberculosis expressing FadD32 E120G mutant after 7 days; format: functional

Cc1cc2oc(=O)cc(-c3ccccc3)c2c(C)c1-c1ccc(CO)cc1
Activity [1]: inactive

CNC(=O)c1ccc(-c2c(C)cc3oc(=O)cc(-c4ccccc4)c3c2C)cc1
Activity [1]: inactive

Cc1cc2oc(=O)cc(-c3ccccc3)c2c(C)c1-c1ccc(CN2CCCCC2)cc1
Activity [1]: inactive

Cc1cc2oc(=O)cc(-c3ccc(N)cc3)c2c(C)c1-c1ccc(CN2CCOCC2)cc1
Activity [1]: inactive

CC(=O)Nc1cccc(-c2cc(=O)oc3cc(C)c(-c4ccc(CN5CCOCC5)cc4)c(C)c23)c1
Activity [1]: inactive

Cc1cc2oc(=O)cc(-c3ccccc3)c2c(C)c1-c1ccncc1
Activity [1]: inactive

Cc1cc2oc(=O)cc(-c3ccccc3)c2c(C)c1-c1ccc(CN2CCN(C)CC2)cc1
Activity [1]: inactive

Cc1cc2oc(=O)cc(-c3ccccc3)c2c(C)c1-c1ccc(CNC2CCCCC2)cc1
IC90 [2]: 32 µM
Activity [1]: inactive

Cc1cc2oc(=O)cc(-c3cccnc3)c2c(C)c1-c1ccc(CN2CCOCC2)cc1
Activity [1]: inactive

Cc1cc2oc(=O)cc(-c3ccccc3)c2c(C)c1-c1ccc(C(C)O)cc1 (stereo not given)
Activity [1]: inactive

Cc1cc2oc(=O)cc(-c3ccccc3)c2c(C)c1-c1ccccc1Cl
Activity [1]: inactive

Cc1cc2oc(=O)cc(-c3cccc([N+](=O)[O-])c3)c2c(C)c1-c1ccc(CN2CCOCC2)cc1
Activity [1]: inactive

Cc1cc(CO)ccc1-c1c(C)cc2oc(=O)cc(-c3ccccc3)c2c1C
Activity [1]: inactive

Cc1cc2oc(=O)cc(-c3ccccc3)c2c(C)c1-c1ccc(CN2CCOCC2)cc1
Activity [1]: inactive
